Counter-ions that a name gives are not always drawn. Like-named read-outs stand apart in the source and are kept apart here.
Tests used:
[1] = test system: NQO1 specific enzyme activity in BEAS-2B cells; assay: BEAS-2B NQO1 MTT Assay; format: cell-based; conditions: NQO1 specific activity induction, BEAS-2B cells, 48 hours, read-out: EC50
Excerpt: NAD(P)H:quinone oxidoreductase 1 (NQO1), also called DT diaphorase, is a homodimeric FAD-containing enzyme that catalyzes obligatory NAD(P)H-dependent two-electron reductions of quinones and protects cells against the toxic and neoplastic effects of free radicals and reactive oxygen species arising from one-electron reductions. The transcription of NQO1 is finely regulated by NRF2, and thus NQO1 activity is a good marker for NRF2 activation. On day one, frozen BEAS-2B cells (ATCC) were thawed in a water bath, counted, and re-suspended at a concentration of 250,000 cells/mL. Fifty microliters of cells were plated in 384 well black clear-bottomed plates. Plates were incubated at 37° C., 5% CO2 overnight. On day two, plates were centrifuged and 50 nL of compound or controls were added to the cells. Plates were then incubated at 37° C., 5% CO2 for 48 hours. On day four, medium was aspirated from the plate and crude cell lysates were made by adding 13 uL of 1× Cell Signaling Technologies lysis buffer with 1 Complete, Mini, EDTA-free Protease Inhibitor Tablet (Roche) for each 10 mL of lysis buffer. After lysis plates were incubated for 20 minutes at room temperature. Two microliters of lysate were removed for use in Cell Titer Glo assay (Promega) and MTT cocktail was prepared (Prochaska et. al. 1998) for measurement of NQO1 activity. Fifty microliters of MTT cocktail is added to each well, plate is centrifuged, and analyzed on an Envision plate reader (Perkin Elmer) using Absorbance 570 nm label for 30 minutes. Product formation was measured kinetically and the pEC50 of NQO1 specific activity induction was calculated by plotting the change in absorbance (Delta OD/min) versus the log of compound concentration followed by 3-parameter fitting. pEC50 is the negative log of the EC50.

[2] = test system: histologic abnormalities, especially hepatic fibrosis; conditions: rats on a choline-deficient L-amino acid-defined diet; cited from earlier work
[3] = test system: COPD macrophages and alveolar macrophages from cigarette smoke-exposed mice; conditions: cited from earlier work
[4] = test system: cortical glutathione levels; conditions: NRF2 wild-type but not KO mice; cited from earlier work
cortical damage = conditions: rats, cerebral ischemia-reperfusion model; cited from earlier work

## CCOc1ccc(Br)cc1CN(Cc1cccc(-n2ncc(C(=O)O)c2[C@@H]2C[C@H]2c2cn(C)nn2)c1)C1CC1 (relative stereo) [Example 55, 1-(3-(((5-bromo-2-ethoxybenzyl)cyclo-propyl)amino)methyl)phenyl)-5-((trans)-2-(1-methyl-1H-1,2,3-triazol-4-yl)cyclopropyl)-1H-pyrazole-4-carboxylic acid trifluoroacetate]
[1]
  EC50: 0.1 to 1 µM

## C[C@H]1Cc2ccc(C(F)(F)F)cc2S(=O)(=O)N([C@@H]2CCc3c2cccc3-n2ncc(C(=O)O)c2[C@@H]2C[C@H]2c2cn(C)nn2)C1 [Example 26b, 1-((R)-1-((S)-4-Methyl-1,1-dioxido-8-(trifluoromethyl)-4,5-dihydrobenzo[f][1,2]thiazepin-2(3H)-yl)-2,3-dihydro-1H-inden-4-yl)-5-((1R,2R)-2-(1-methyl-1H-1,2,3-triazol-4-yl)cyclopropyl)-1H-pyrazole-4-carboxylic acid]
[1]; Homo sapiens
  EC50: 1 to 10 µM

## O=C(NCc1ccccn1)Nc1nnc(-c2ccco2)o1 [NK-252]
[2]
  progression of histologic abnormalities, especially hepatic fibrosis: significantly attenuated

## C[S+]([O-])CCCCN=C=S (centres unmarked) [Sulforaphane]
[3]; COPD macrophages and alveolar macrophages from cigarette smoke-exposed mice
  expression of Macrophage Receptor with Collagenous structure (MARCO): increases
[3]; ex vivo and in vivo
  bacterial phagocytosis (Pseudomonas aeruginosa, non-typable Haemophilus influenzae) and bacterial clearance: improving

## Cc1c(-c2cnccn2)ssc1=S [oltipraz]
[2]
  progression of histologic abnormalities, especially hepatic fibrosis: significantly attenuated

## CC(C)(C)c1cc(O)ccc1O [tert-butylhydroquinone]
[4]
  cortical glutathione levels: increased in NRF2 wild-type but not KO mice
Cortical damage
  cortical damage: reduced cortical damage

From patent US20200071310A1, “N-ARYL PYRAZOLES AS NRF2 REGULATORS” (GLAXOSMITHKLINE INTELLECTUAL PROPERTY DEVELOPMENT LIMITED, priority 2016, published 2020)
